# Assay results as given in US11458138B2 (Novartis AG, priority 2017, dated 2022).
# Entries after “also recorded” stand apart in the source; their conditions may differ.
# Key:
# [1] = system: corneal endothelial cell population; experiment: Immunohistochemical analysis of expanded corneal endothelial cell population; type: cell-based, human
# From the text: (1) The cells express Na/K ATPase. The expression of Na/K ATPase may be estimated by standard techniques known in the art, such as for example immunohistochemistry, quantitative RT-PCR or by FACS analysis.
# [2] = system: limbal stem cells (LSCs); experiment: Immunolabelling of LSC markers DeltaN-p63 alpha/beta/gamma, ABCG2, C/EBP delta; type: cell-based, human; settings: vs cells cultured in DMSO
# From the text: In contrast, cells cultured in the presence of LATS inhibitors express markers such as DeltaN-p63 alpha/beta/gamma, ABCG2 and C/EBP delta, normally expressed by LSCs.
# (3) The cells express one or more of ABCB5, ABCG2, and C/EBPδ. The expression of ABCB5, ABCG2, and C/EBPδ may be estimated by standard techniques known in the art, such as for example immunohistochemistry and quantitative RT-PCR.
# [3] = system: YAP in human CECs; experiment: Intracellular YAP distribution in corneal endothelial cells (CECs); type: cell-based; settings: 10 micromolar, 24 hours
# Description: Cells obtained as described in Example C1 were plated in glass-bottom black wall 24-well dishes in corneal endothelial cell culture medium (human endothelial SF (serum free) medium (Invitrogen) with human serum) supplemented with LATS inhibitor compound example no. 133 or compound example no. […] Cells were cultured under these conditions for 24 hours at 37° C. in 5% CO2.
# To measure the effect of the LATS inhibitors on the downstream target YAP, intracellular YAP distribution was analyzed by immunohistochemistry. Cell cultures were fixed with 4% PFA for 20 minutes, permeabilized and blocked in a blocking solution of 0.3% Triton X-100 (Sigma-Aldrich) and 3% donkey serum in PBS for 30 minutes. Cells were then labeled with primary antibody in the blocking solution for 12 hours at 4° C. Primary antibody used was anti-YAP from Santa Cruz Biotechnology. Samples were washed in PBS three times and donkey-raised secondary antibody Alexa Fluor 488 (Molecular Probes) at 1:500 dilution were applied for 30 minutes at room temperature. […] Fluorescence was observed using a Zeiss LSM 880 confocal microscope.
# [4] = system: Corneal Endothelial Cells (CECs); experiment: ZO-1 immunolabelling of expanded CECs; type: cell-based, human; settings: vs vehicle DMSO
# From the text: CECs proliferated in the presence of the vehicle alone (DMSO) show signs of polymegatism characteristic of dysfunctional CECs (FIG. 18a).
# (2) The cells are able to form tight junctions. This may be checked by a standard technique known in the art, immunofluorescence staining of tight-junction marker Zonula Occludens-1 (ZO-1).
# (3) The cells are able to be regularly arranged in the cell layer. This may be checked by a standard technique known in the art, immunofluorescence staining of tight-junction marker Zonula Occludens-1 (ZO-1).
# [5] = system: YAP translocation in Corneal Endothelial Cells (CECs); experiment: YAP nuclear translocation in Corneal Endothelial Cells (CECs); type: cell-based, human
# [6] = system: mouse dorsal skin; experiment: In Vivo Histology and Ki67 Staining Assay (skin cell proliferation); settings: intact mouse dorsal skin, topical, three days of twice-a-day dosing, vs vehicle
# Description: Further, the compounds of the invention increase skin cell proliferation in vivo when applied topically. The study was conducted as described the “In Vivo Histology and Ki67 Staining Assay” in the Examples Section A. Example 133 or vehicle were applied to intact mouse dorsal skin. After three days of twice-a-day dosing, the skin samples were collected and subjected to immunohistology staining for Ki67. The sections were evaluated visually for cell proliferation and for the abundance of Ki67 positive cells. The study results are documented in FIGS. 35A and 35B.
# FIG. 35B compares the abundance of Ki67 positive cell in untreated and treated mouse skin. […] Also, by using siRNA to knockdown both LATS1 and LATS2, LATS as a negative regulator of the YAP pathway has also been validated.
# [7] = system: pYAP (Ser127) in human HaCaT cells; experiment: Target Identification Assay: western blot for pYAP in HaCaT cell lysates; type: cell-based; settings: 9 μM for 1 hour in the presence of 0.5 μM Okadaic acid
# Description: Compounds of Formula A1, or subformulae thereof, selectively target LATS1/2 versus MST1/2 kinases. To identify the target of the hits from the YAP translocation assay screen, the Target Identification Assay as described in the Examples Section A was performed. The results of the assay are described in FIGS. 33A to 33C.
# It is consistent with the consensus in the field that LATS is responsible for YAP phosphorylation.
# [8] = system: Phospho-YAP (SER127) in liver tissue; experiment: In vivo treatment of mice: Phospho-YAP (pYAP) HTRF in liver tissue; settings: mouse liver, single oral dose 10 mg/kg
# Description: All animal studies were carried out in accordance with federal, state, local and institutional guidelines governing the use of laboratory animals in research. Male C57BL/6J mice (age 8-10 weeks) were purchased from Jackson Labs (Bar Harbor, Me.). Example 46 was formulated for oral dosing at 3 mg/ml, and Example 261 at 1 mg/ml, in a suspension of methylcellulose:Tween80:Water (0.5:0.5:99). Single oral dose of either compound was at 10 mL/kg body weight. Blood and liver tissue were collected under deep anesthesia (isoflurane) at either 2 h post-dose (for mRNA analysis) or 24 h post-dose (for immunohistochemistry).
# Frozen liver tissue was transferred into a Lysing Matrix tube (MP, cat #6913-500) with a 1:50 solution of Protease inhibitor (Sigma-Aldrich, cat #P8340) in Phosphosafe extraction buffer (Novagen, cat #71296-3) and homogenized using the FastPrep-24 (MP biomedicals). […] The protein concentration was measured using the BCA Protein Assay Kit (Pierce cat. 23227) following the manufacturer's protocol. […] The same input quantity was used for each sample, based on total protein content (30-60 ug per sample per well). […] Plates were read on an EnVision (PerkinElmer) with emission wavelengths of 665 nm & 620 nm. The HTRF signal ratio was calculated as Signal(665 nm)/Signal(620 nm))×10000 as specified in the manufacturer's protocol. […]
SMILES,expression of Na/K ATPase and Collagen 8a2 by immunohistochemistry [1],"expression of LSC markers DeltaN-p63 alpha/beta/gamma, ABCG2 and C/EBP delta [2]",YAP immunostaining in CECs [3],"tight junctions, cell size and morphology of CECs (ZO-1) [4]",translocation of YAP into the nucleus in CECs [5],abundance of Ki67 positive cells [6] [%],basal cell proliferation and epidermal thickness [6],pYAP by western blot [7],pYAP (% of control) [8]
"CC(C)(O)CC(C)(C)Nc1nc(-c2ccncc2)nc2cnccc12 [Example 49, 2,4-dimethyl-4-{[2-(pyridin-4-yl)pyrido[3,4-d]pyrimidin-4-yl]amino}pentan-2-ol]",express genes normally expressed by corneal endothelial cells in vivo,express typical markers of LSCs,stronger,"form tight junctions, an endothelial structure and retain a normal cell size and morphology",induce translocation of YAP into the nucleus,,,,
"Cc1n[nH]cc1-c1nc(NC2(C)CC2)c2ccncc2n1 [Example 133, 2-(3-methyl-1H-pyrazol-4-yl)-N-(1-methylcyclopropyl)pyrido[3,4-d]pyrimidin-4-amine]",,express typical markers of LSCs,stronger,,induce translocation of YAP into the nucleus,10,significant increase in basal cell proliferation and epidermal thickness; also recorded: increased basal layer skin cell growth,dramatically inhibited,
"CC(C)(C)Nc1cc(-c2ccncc2)nc2cnccc12 [Example 261, N-(tert-butyl)-2-(pyridin-4-yl)-1,7-naphthyridin-4-amine]",,,,,,,,,60 % of control
